The values below come from patent publication US7135481B2, “Naphthalimide compositions and uses thereof” (ChemGenex Pharmaceuticals, Inc., priority 2000, dated 2006).

For data set [1], the system named is RIF-1 murine fibrosarcoma. Nature of the data set: Example 2: RIF-1 tumor growth delay (TVQT), amonafide alone and with other chemotherapeutics. Particulars: for TVQT: single agent, mean ± SE.
Description: Animals: Female C3H mice (Charles River Laboratories, Holister, Calif.), approximately 3 months old, were used for the study. The average body weight was approximately 25 g. Animals were maintained in isolator cages on a 12-hour light-and-dark cycle. Food and water were available ad libitum.
Tumors: The RIF-1 murine fibrosarcoma cell line was maintained in in vitro culture (Waymouth medium supplemented with 20% fetal bovine serum) at 37 C. in a humidified 5% CO2 incubator. Log-phase RIF-1 cells were trypsinized and harvested from cell culture flasks to yield a concentration of 4×10^6 cells/mL, then injected intradermally in a volume of 50 μL (equivalent to 2×10^5 cells per injection) into both flanks of each mouse. Nine days later, when tumors reached approximately 100 mm^3 in size, the animals were randomized to different treatment groups.
Four to five animals were assigned to each treatment group. The intrperitoneal injection volume was 100 μL. The oral administration volume was 100 μL. Combination treatments using two test agents were administered as two separate injections, with the second one following the first either immediately or after 30 minutes.
Tumor volume (cubic millimeters, mm^3) was calculated according to the formula: V=π/6×D1×D2×D3 in which D1–3 are perpendicular diameters measured in millimeters (mm).
Tumor volume quadrupling time (TVQT), defined as the time required for a tumor to grow to four times (4×) its initial volume (at the time of treatment), was used as a study endpoint. The TVQT was determined for each treatment group and expressed in days as the mean±standard error (SE).
Data set [2] is described as follows: Example 2: animal deaths after treatment. Type of data set: in vivo, C3H mice. The settings on record: formulated in DMSO at 12.5 mg/mL, IP. How it is done: The average body weight was approximately 25 g. […] Food and water were available ad libitum.
The intrperitoneal injection volume was 100 μL. The oral administration volume was 100 μL.

Data set [3] deals with murine fibrosarcomas (RIF-1 cells). As to the kind of experiment: Example 3: RIF-1 tumor growth delay (TGD), amonafide with camptothecin, genistein or rosmarinic acid. It counts as in vivo, C3H mice. The settings on record: single agent. The protocol: Transplantable experimental murine fibrosarcomas (2×10^5 RIF-1 cells) were grown intradermally in the flanks of 3 month old female C3H mice (Charles River, Holister, Calif.). When the tumors reached a volume of −100 mm^3, the mice were randomly assigned to each experimental group (4 mice per group).
Amonafide was manufactured by Penta for ChemGenex and was made to the appropriate concentration in saline. […] The compositions were injected systemically (i.e., intraperitoneally, i.p.), in a volume of 100 μl. For the treatment of groups 3, 5 and 7, amonafide, was injected immediately prior to the injection of camptothecin, genistein or rosmarinic acid. After treatment, the growth of the tumors was monitored three times per week by caliper measurements of three perpendicular diameters of the tumor and calculation of tumor volume from the formula: V=π/6×D1×D2×D3, where D1-3 represents tumor diameters, in mm.
The data is also expressed as the tumor growth delay (TGD) median which is the median days to 4× the tumor volume from the initial treatment day, and as the delay which is the median days to 4× of the treated group minus the median days to 4× of the control group. The T/C ratio is the ratio of days to 4× of the treated tumors over the days to 4× of the untreated control tumors. Increasing values indicate increased antitumor response.
The tumors were followed until they reached 4 times their Day 0 treatment volume or up to 30 days after treatment (tumor growth delay, TGD), whichever came first. The data is also expressed as the ratio of the tumor growth delay of the treated tumor (TGD) over the untreated control group (CTGD). Increasing values of this ratio indicate increased antitumor response.

Data set [4] shares this test system. Nature of the data set: Example 1: tumor growth delay (TVQT) of RIF-1 fibrosarcoma, amonafide with cisplatin. Type of data set: in vivo, C3H mice. The settings on record: single agent. The protocol: When the tumors reached a volume of approximately 100 mm3, the mice were randomly assigned to each experimental group (4 mice per group).
The chemopotentiator, amonafide, was obtained from NCI and was made to the appropriate concentration in DMSO. […] The compositions were injected systemically (i.e., intraperitoneally, i.p.), in a volume of 100 microliters. For the treatment of group 3, the chemopotentiator, amonafide, was injected 30 minutes prior to the injection of cisplatin. After treatment, the growth of the tumors was monitored three times per week by caliper measurements of three perpendicular diameters of the tumor and calculation of tumor volume from the formula: V=π/6×D1×D2×D3, where D1-3 represents tumor diameters, in mm.
The tumors were followed until they reached a size of four times their day zero treatment volume (TVQT), or up to 30 days after treatment, whichever came first. The data is expressed as the “tumor volume quadrupling time” (TVQT) mean and as the “delay.” Mean TVQT is the mean days required for individual tumors to grow to four times the tumor volume at the initial treatment day. The “delay” is the median of days required for a tumor to grow to four times the mean size of the treated group, minus the median of days required to grow to four times the mean size of the control group. The data is also expressed as the ratio of the tumor volume quadrupling time of the treated tumor over the untreated control group (TVQT/CTVQT). Increasing values of this ratio indicate increased antitumor response.

As for `O=c1[nH]cc(F)c(=O)[nH]1` [5-Fluorouracil], the TVQT stood at 6.7 days in data set [1] (15 mg/Kg IP); 6.7 ± 0.4 days in data set [1] (15 mg/Kg IP, listed as Fluorouracil/Saline); 13.6 days in data set [1] (30 mg/Kg IP); 13.6 ± 1.9 days in data set [1] (30 mg/Kg IP, listed as Fluorouracil/Saline).

With `CN(C)CCN1C(=O)c2cccc3cc(N)cc(c23)C1=O` [Amonafide, 5-amino-2-[(dimethylamine)ethyl]-1H-benz[de-]isoquinoline-1,3-(2H)-dione], in data set [1] (30 mg/Kg IP), the TVQT was found to be 7.3 days. The compound further showed a TVQT in data set [1] (30 mg/Kg IP, listed as Amonafide-Penta/Saline) of 7.3 ± 0.2 days. Besides, in data set [1] (intraperitoneal amonafide, alone or in combination), the “antitumor activity, summary in words (versus amonafide alone and the individual test agents)” value is reported as “had antitumor activity”. For the same compound, the animal deaths result in data set [2] is recorded as “Two of four mice died”. In addition, in data set [3] (30 mg/kg i.p.), the “Delay” value is -0.36 days, the “Median (TGD)” value is recorded as 7.0 days, the “TGD ± S.E.” value was found to be 7.0 ± 0.4 days and the TGD/CTGD amounted to 0.9. In data set [4] (50 mg/kg i.p.), the “Delay” value amounted to 2.94 days, the “Mean TVQT ± S.E.” value was found to be 9.7 ± 0.6 days, the “Median (TVQT)” value came out at 9.0 days and the TVQT/CTVQT is recorded as 1.5.

With `CC[C@@]1(O)C(=O)OCc2c1cc1n(c2=O)Cc2cc3ccccc3nc2-1` [Camptothecin], in data set [3] (6 mg/kg i.p.), the “Delay” value was 5.45 days, the “Median (TGD)” value turned out to be 12.8 days, the “TGD ± S.E.” value is given as 12.9 ± 0.5 days and the TGD/CTGD worked out at 1.7.

`N.N.[Cl][Pt][Cl]` [Cisplatin, cis-diamminedichloroplatinum II] displayed a TVQT in data set [1] (4 mg/Kg IP) of 9.2 days. Moreover, the TVQT in data set [1] (4 mg/Kg IP, listed as Cisplatin/WFI) was 9.2 ± 0.4 days. In data set [4] (4 mg/kg i.p.), the “Delay” value turned out to be 2.10 days, the “Mean TVQT ± S.E.” value is listed as 8.4 ± 0.3 days, the “Median (TVQT)” value was 8.1 days and the TVQT/CTVQT stood at 1.3.

In the case of `COc1cc2c(c(OC)c1OC)-c1ccc(OC)c(=O)cc1[C@@H](NC(C)=O)CC2` [Colchicine, colchicine], the TVQT in data set [1] (10 mg/Kg PO) is on record as 6.3 days; in data set [1] (10 mg/Kg PO, listed as Colchicine/Saline) it was 6.3 ± 0.3 days.

As for `COc1cc(/C=C/C(=O)CC(=O)/C=C/c2ccc(O)c(OC)c2)ccc1O` [Curcumin], the TVQT in data set [1] (25 mg/Kg IP) is given as 9.7 days; in data set [1] (25 mg/Kg IP, listed as Curcumin/DMSO), 9.7 ± 1.1 days.

In the case of `COc1cc([C@@H]2c3cc4c(cc3[C@@H](O[C@@H]3O[C@@H]5CO[C@@H](C)O[C@H]5[C@H](O)[C@H]3O)[C@H]3COC(=O)[C@H]23)OCO4)cc(OC)c1O` [Etoposide], the TVQT is recorded as 8.5 days in data set [1] (10 mg/Kg IP) and 8.5 ± 0.5 days in data set [1] (10 mg/Kg IP, listed as Etoposide/Saline).

`O=c1c(-c2ccc(O)cc2)coc2cc(O)cc(O)c12` [Genistein]: in data set [3] (60 mg/kg i.p.), the “Delay” value is 0.78 days, the “Median (TGD)” value turned out to be 8.1 days, the “TGD ± S.E.” value worked out at 7.9 ± 0.4 days and the TGD/CTGD came out at 1.1.

Regarding `COC(=O)C[C@](O)(CCCC(C)(C)O)C(=O)O[C@@H]1C(OC)=C[C@]23CCCN2CCc2cc4c(cc2[C@H]13)OCO4` [Homoharringtonine, homoharringtonine], the TVQT in data set [1] (4 mg/Kg IP, listed as Homoharringtonine/WFI) turned out to be 8.5 ± 0.5 days; in data set [1] (4 mg/Kg IP, listed as homoharringtonie), 8.5 days.

Turning to `CC(=O)O[C@H]1C(=O)[C@@]2(C)[C@H]([C@H](OC(=O)c3ccccc3)[C@]3(O)C[C@H](OC(=O)[C@H](O)[C@@H](NC(=O)c4ccccc4)c4ccccc4)C(C)=C1C3(C)C)[C@]1(OC(C)=O)CO[C@@H]1C[C@@H]2O` [Paclitaxel], the TVQT came out at 7.9 days in data set [1] (10 mg/Kg IP) and 7.9 ± 0.3 days in data set [1] (10 mg/Kg IP, listed as Paclitaxel/Cremaphor EL).

Take `O=C(/C=C/c1ccc(O)c(O)c1)O[C@H](Cc1ccc(O)c(O)c1)C(=O)O` [Rosmarinic Acid]: in data set [3] (20 mg/kg i.p.), the “Delay” value came out at 0.46 days, the “Median (TGD)” value is reported as 7.8 days, the “TGD ± S.E.” value stood at 8.4 ± 0.5 days and the TGD/CTGD is reported as 1.1.

As for `CC[C@]1(O)C[C@@H]2CN(CCc3c([nH]c4ccccc34)[C@@](C(=O)OC)(c3cc4c(cc3OC)N(C)[C@H]3[C@@](O)(C(=O)OC)[C@H](OC(C)=O)[C@]5(CC)C=CCN6CC[C@]43[C@@H]65)C2)C1` [Vinblastine], the TVQT in data set [1] (2 mg/Kg IP) is listed as 8.6 days; in data set [1] (2 mg/Kg IP, listed as Vinblastine/Saline) it was 8.6 ± 0.4 days.
